According to patent US20230057568A1, “COMPOUNDS FOR TREATING FAMILIAL DYSAUTONOMIA” (PTC THERAPEUTICS, INC., priority 2019, published 2023):

Test system: Elongator complex protein 1 (ELP1, also referred to as IKBKAP)
Test: IKBKAP-HTRF Assay
Assay type: cell-based, human
Details: FD patient-derived fibroblasts GM04589, 48 hours incubation; for EC2x for IKBKAP protein expression (concentration producing two times the amount of IKBKAP protein vs DMSO vehicle control): 7-point concentration curve; for MFI (maximum fold increase in IKBKAP protein abundance relative to the vehicle control): HTRF
Summary of the method: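 Sandwich HTRF (anti-IKAP d2 and K(9+8)) on cell lysates measured IKBKAP protein after overnight 4 °C incubation, read at 665 and 620 nm. Lysates came from FD patient cells exposed 48 hours to 7-point compound dilutions, in triplicate. Outputs: maximum fold increase over vehicle, and EC2× (the concentration giving twice the DMSO-control protein level).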

| SMILES | EC2x for IKBKAP protein expression (concentration producing two times the amount of IKBKAP protein vs DMSO vehicle control) | MFI (maximum fold increase in IKBKAP protein abundance relative to the vehicle control) |
| --- | --- | --- |
| Cc1c(CCCO)sc2c(NCc3ccco3)nc(Cl)nc12 [Cpd 63, 3-(2-chloro-4-{[(furan-2-yl)methyl]amino}-7-methylthieno[3,2-d]pyrimidin-6-yl)propan-l-ol] | * (EC2×>1 μM) | * (MFI<1.9) |
| CC(C)[C@H](N)Cc1cc2nc(Cl)nc(NCc3ccco3)c2s1 [Cpd 5, 6-[(2R)-2-amino-3-methylbutyl]-2-chloro-N-[(furan-2-yl)methyl]thieno[3,2-d]pyrimidin-4-amine] | *** (between >0.02 μM and ≤0.5 μM) | *** (between >2.9 and <3.9) |
| CC[C@H](N)Cc1sc2c(NCc3ccncn3)nc(Cl)nc2c1C [Cpd 89, 6-[(2S)-2-aminobutyl]-2-chloro-7-methyl-N-[(pyrimidin-4-yl)methyl]thieno[3,2-d]pyrimidin-4-amine] | ***** (<0.005 μM) | ***** (>4.9) |
| CC[C@H](N)Cc1sc2c(NCc3nccs3)nc(Cl)nc2c1C [Cpd 54, 6-[(2S)-2-aminobutyl]-2-chloro-7-methyl-N-[(1,3-thiazol-2-yl)methyl]thieno[3,2-d]pyrimidin-4-amine] | ***** (<0.005 μM) | ***** (>4.9) |
| Cc1csc2c(NCc3ccco3)nc(Cl)nc12 [Cpd 18, 2-chloro-N-[(furan-2-yl)methyl]-7-methylthieno[3,2-d]pyrimidin-4-amine] | *** (between >0.02 μM and ≤0.5 μM) | ***** (>4.9) |
| CN[C@@H](C)Cc1sc2c(NCc3ccco3)nc(Cl)nc2c1C [Cpd 79, 2-chloro-N-[(furan-2-yl)methyl]-7-methyl-6-[(2S)-2-(methylamino)propyl]thieno[3,2-d]pyrimidin-4-amine] | *** (between >0.02 μM and ≤0.5 μM) | **** (between >3.9 and <4.9) |
| Cc1c(C[C@@H](C)CO)sc2c(NCc3ccco3)nc(Cl)nc12 [Cpd 71, (2R)-3-(2-chloro-4-{[(furan-2-yl)methyl]amino}-7-methylthieno[3,2-d]pyrimidin-6-yl)-2-methylpropan-1-ol] | * (EC2×>1 μM) | * (MFI<1.9) |
| Cc1c(C[C@H](C)N)sc2c(NCc3ncncc3F)nc(Cl)nc12 [Cpd 98, 6-[(2S)-2-aminopropyl]-2-chloro-N-[(5-fluoropyrimidin-4-yl)methyl]-7-methylthieno[3,2-d]pyrimidin-4-amine] | **** (between >0.005 μM and ≤0.02 μM) | ***** (>4.9) |
| Clc1nc(NCc2ccncn2)c2sccc2n1 [Cpd 95, 2-chloro-N-[(pyrimidin-4-yl)methyl]thieno[3,2-d]pyrimidin-4-amine] | * (EC2×>1 μM) | *** (between >2.9 and <3.9) |
| C[C@H](N)Cc1sc2c(NCc3ccco3)nc(Cl)nc2c1C1CC1 [Cpd 36, 6-[(2S)-2-aminopropyl]-2-chloro-7-cyclopropyl-N-[(furan-2-yl)methyl]thieno[3,2-d]pyrimidin-4-amine] | **** (between >0.005 μM and ≤0.02 μM) | ***** (>4.9) |
| COc1c(C[C@@H](N)CO)sc2c(NCc3cccs3)nc(Cl)nc12 [Cpd 99, (2R)-2-amino-3-(2-chloro-7-methoxy-4-{[(thiophen-2-yl)methyl]amino}thieno[3,2-d]pyrimidin-6-yl)propan-1-ol] | **** (between >0.005 μM and ≤0.02 μM) | *** (between >2.9 and <3.9) |
| C[C@H](N)Cc1cc2ncnc(NCc3ccco3)c2s1 [Cpd 8, 6-[(2S)-2-aminopropyl]-N-[(furan-2-yl)methyl]thieno[3,2-d]pyrimidin-4-amine] | *** (between >0.02 μM and ≤0.5 μM) | *** (between >2.9 and <3.9) |
| C[C@H](N)Cc1cc2nc(Cl)nc(NCc3ccncc3)c2s1 [Cpd 9, 6-[(2S)-2-aminopropyl]-2-chloro-N-[(pyridin-4-yl)methyl]thieno[3,2-d]pyrimidin-4-amine] | **** (between >0.005 μM and ≤0.02 μM) | ***** (>4.9) |
| C[C@H](N)Cc1sc2c(NCc3cccs3)nc(C#N)nc2c1Br [Cpd 83, 6-[(2S)-2-aminopropyl]-7-bromo-4-{[(thiophen-2-yl)methyl]amino}thieno[3,2-d]pyrimidine-2-carbonitrile] | **** (between >0.005 μM and ≤0.02 μM) | ***** (>4.9) |
| Cc1c(C[C@H](C)N)sc2c(NCc3nccs3)nc(Cl)nc12 [Cpd 29, 6-[(2S)-2-aminopropyl]-2-chloro-7-methyl-N-[(1,3-thiazol-2-yl)methyl]thieno[3,2-d]pyrimidin-4-amine] | ***** (<0.005 μM) | ***** (>4.9) |
| C[C@H](N)Cc1sc2c(NCc3cccs3)nc(Cl)nc2c1-c1ccccc1 [Cpd 87, 6-[(2S)-2-aminopropyl]-2-chloro-7-phenyl-N-[(thiophen-2-yl)methyl]thieno[3,2-d]pyrimidin-4-amine] | * (EC2×>1 μM) | * (MFI<1.9) |
| Cc1c(C[C@@H](C)CN)sc2c(NCc3ccco3)nc(Cl)nc12 [Cpd 72, 6-[(2R)-3-amino-2-methylpropyl]-2-chloro-N-[(furan-2-yl)methyl]-7-methylthieno[3,2-d]pyrimidin-4-amine] | *** (between >0.02 μM and ≤0.5 μM) | *** (between >2.9 and <3.9) |
| Cc1c(C[C@H](C)N)sc2c(NCc3ccnn3C)nc(Cl)nc12 [Cpd 81, 6-[(2S)-2-aminopropyl]-2-chloro-7-methyl-N-[(1-methyl-1H-pyrazol-5-yl)methyl]thieno[3,2-d]pyrimidin-4-amine] | * (EC2×>1 μM) | * (MFI<1.9) |
| Cc1ccc(CNc2nc(Cl)nc3c(C)c(C[C@H](C)N)sc23)o1 [Cpd 24, 6-[(2S)-2-aminopropyl]-2-chloro-7-methyl-N-[(5-methylfuran-2-yl)methyl]thieno[3,2-d]pyrimidin-4-amine] | *** (between >0.02 μM and ≤0.5 μM) | *** (between >2.9 and <3.9) |
| C[C@H](N)Cc1sc2c(NCc3cccs3)nc(Cl)nc2c1-c1ccc(Cl)cc1 [Cpd 88, 6-[(2S)-2-aminopropyl]-2-chloro-7-(4-chlorophenyl)-N-[(thiophen-2-yl)methyl]thieno[3,2-d]pyrimidin-4-amine] | * (EC2×>1 μM) | * (MFI<1.9) |
| C[C@H](N)Cc1cc2nc(Cl)nc(NCc3ccco3)c2s1 [Cpd 3, 6-[(2S)-2-aminopropyl]-2-chloro-N-[(furan-2-yl)methyl]thieno[3,2-d]pyrimidin-4-amine] | **** (between >0.005 μM and ≤0.02 μM) | **** (between >3.9 and <4.9) |
